{"source": "patent US11458146B2", "about": "“Compositions and methods for the treatment of myelin related and inflammation related diseases or disorders” (Duke University, priority 2017, dated 2022)", "key": {"[1]": {"tested_on": "Primary neural stem cells", "assay": "in vitro screening method for oligodendrogenesis (CNPase+ cell count)", "type": "cell-based, mice", "conditions": "exposed five days, differentiated 15-18 days; compared to media control", "description": "Primary neural stem cells generated from mice were screened for oligodendrogenic potential after treatment with 20HC, 22HC, 24HC, 25HC, and 27HC. Neural stem cells in 8-well chamber slides were exposed to the indicated oxysterol for five days, and then allowed to differentiate for 15-18 days. Following differentiation, cells were fixed and stained for oligodendrocyte markers CNPase and myelin basic protein (MBP) (FIG. 6A). Stained cells were randomly sampled with a 40× objective, using Stereo Investigator software to eliminate bias, while quantifying the number of oligodendrocytes. Each condition was sampled at 10-12 computer selected sites. Images were used to count the number of nucleated CNPase+ cells per high power field (HPF)."}, "naïve CD4+ T cells": {"tested_on": "naïve CD4+ T cells", "assay": "TH17 polarization of naïve CD4+ T cells in vitro (flow cytometry, IL-17 production)", "type": "cell-based, rodent", "conditions": "for cells polarized into the TH17 population: control cells 7.8%; for TH17 polarization (in words, FIG. 8): flow cytometry", "protocol": "Naïve CD4 T cells were isolated from rodent spleen tissue using CD4 magnetic beads. CD4+ lymphocytes were cultured on plates coated with anti-CD3 antibody and anti-CD28 antibodies in the presence of rTGFb, rIL-6, and rIL-23 for 5 days. Four hours prior to flow cytometry analysis, the cells were stimulated with PMA, ionomycin, and Brefeldin A. The cells were then analyzed for IL-17 production (FIG. 8, wherein CD4+ T cell culture in the presence of CD3/CD28-coated beads with IMDM media containing rTGFβ (4 ng/ml), rIL-6 (20 ng/ml), rIL-23 (50 ng/ml), anti-IL-4 Ab, and anti-IFNg Ab with or without GW or HC for 5 days. PMA (50 ng/ml), Ionomycin (500 ng/ml) for […], and Brefeldin A (10 μg/ml) for last 3 h)). 7.8% of the control cells polarized into the TH17 population. The LXR agonist GW3965 prevented TH17 polarization (2.6%)."}, "[2]": {"tested_on": "Primary neural stem cells", "assay": "oligodendrocyte differentiation from neural stem cells, western blot for CNPase and MBP", "type": "cell-based", "conditions": "1 μm and 0.5 μm for five days, then differentiation for 18 days", "protocol": "FIG. 5 is a western blot analysis. Stem cells were treated with oxysterols at doses indicated for 5 days then allowed to differentiate for 18 days. Protein lysates were probed for oligodendrocyte-associated proteins CNPase and myelin basic protein (MBP). Primary neural stem cells were treated with 24-hydroxycholesterol and 25-hydroxycholesterol at 1 μm and 0.5 μm for five days, then allowed to differentiate for 18 days. Protein lysates were probed for oligodendrocyte-associated proteins CNPase and myelin basic protein (MBP)."}, "[3]": {"tested_on": "perinatal white matter injury in neonatal mice", "assay": "mouse model of perinatal white matter injury (simulated bowel perforation and sepsis)", "type": "in vivo", "protocol": "Perinatal bowel perforation is a common complication of premature birth and is strongly linked to myelin injury and cerebral palsy. A mouse model of perinatal white matter injury was developed. The model simulates a perinatal bowel perforation and sepsis by injection of donor cecal contents into the peritoneal cavity of neonatal mice on postnatal day 5. Using this model, the efficacy of 25-hydroxycholesterol in reversing white matter injury was tested. […] Breast-milk associated 25-HC reversed diffuse white matter injury. The cells were stained with oligodendrocyte marker CC1. 40× high power fields (PHF) were imaged."}, "smoothened (SMO)": {"target": "smoothened (SMO) (Homo sapiens, UniProt Q99835)", "sequence (Q99835 28-787)": "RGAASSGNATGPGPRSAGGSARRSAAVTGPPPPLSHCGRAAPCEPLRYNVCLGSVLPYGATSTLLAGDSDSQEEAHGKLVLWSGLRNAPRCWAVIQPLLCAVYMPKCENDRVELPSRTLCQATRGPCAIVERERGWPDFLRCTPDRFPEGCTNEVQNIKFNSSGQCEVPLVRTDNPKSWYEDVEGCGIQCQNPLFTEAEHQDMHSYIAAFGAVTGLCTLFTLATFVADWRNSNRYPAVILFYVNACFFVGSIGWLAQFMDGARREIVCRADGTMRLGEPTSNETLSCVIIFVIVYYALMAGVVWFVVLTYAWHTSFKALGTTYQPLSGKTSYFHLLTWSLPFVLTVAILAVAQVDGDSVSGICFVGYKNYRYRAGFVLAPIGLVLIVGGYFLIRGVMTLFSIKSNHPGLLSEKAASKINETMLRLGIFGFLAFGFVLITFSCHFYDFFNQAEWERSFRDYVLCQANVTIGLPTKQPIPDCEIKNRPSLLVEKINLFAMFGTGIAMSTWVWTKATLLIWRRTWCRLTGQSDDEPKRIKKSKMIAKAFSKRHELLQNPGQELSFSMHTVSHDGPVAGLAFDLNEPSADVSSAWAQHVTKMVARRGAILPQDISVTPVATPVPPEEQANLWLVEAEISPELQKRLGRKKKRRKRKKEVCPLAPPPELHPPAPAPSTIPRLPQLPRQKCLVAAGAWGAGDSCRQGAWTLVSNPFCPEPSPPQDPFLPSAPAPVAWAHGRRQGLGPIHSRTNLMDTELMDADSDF", "conditions": "fibroblast cell culture systems; recent studies; cited from earlier work"}, "[4]": {"tested_on": "EAE induced with MOG35-55 peptide in C57BL/6J mice", "assay": "experimental allergic encephalitis (EAE) mouse model", "type": "in vivo", "protocol": "EAE was induced using myelin oligodendrocyte glycoprotein (MOG35-55) peptide using standard approaches (see, e.g., Bittner et al., J. Vis. Exp., 86: 51275 (2014); and Miller et al., Curr Protoc Immunol., Unit-15.1 (2007)) in 15 wild-type 8 week old C57BL/6J mice. TH17 T cell populations are pathogenic in the EAE model and have been implicated in multiple sclerosis (MS). Seven mice (3 male, 4 female) proceeded without further intervention while 8 mice (3 female and 5 male) were given daily 125 μL subcutaneous injections of 20HC resuspended in corn oil (10 mg/mL) two days prior to EAE induction and through day 14, just prior to peak clinical severity. Mice were scored daily for the development of ascending paralysis that is indicative of the development of EAE. In vivo treatment of mice with 20HC (50 mg/kg/day) disrupted the development of MS-like symptoms in the EAE model, as shown in FIGS. 9A and 9B."}, "NF-κB": {"tested_on": "NF-κB", "assay": "NF-κB activation in LPS-treated primary splenic monocytes (western blot)", "type": "cell-based, mice", "conditions": "1 μm 20HC for 24 hours, then 500 ng/mL LPS", "protocol": "FIG. 7 is a Western blot showing the 20HC inhibition of NFκB pathway in primary splenic monocytes. Primary monocytes were exposed to media, 20HC (24 hour)+LPS (500 ng/ml), or LPS alone for 4 hours. 20HC prevented IκB degradation and p65 phosphorylation in LPS treated cells.\nSplenocytes where harvested from postnatal day 12 mice. Monocytes were negatively selected using anti-CD3, CD19 magnetic beads. Cells were treated with vehicle control (DMSO) or 1 μm 20HC for 24 hours. After exposure to 20HC, monocytes were treated with 500 ng/mL of lipopolysaccharide (LPS) to activate the TLR4 receptor and activate NF-κB. Compared to control cells, LPS-treated cells degraded I-κB and phosphorylated p65 consistent with NF-κB activation (FIG. 7). I-κB degradation and phosphorylation of p65 was blocked in 20HC-treated monocytes."}}, "note": "Entries after “also recorded” stand apart in the source; their conditions may differ."}
{"smiles": "C[C@@H](CO)CCC[C@@H](C)[C@H]1CC[C@H]2[C@@H]3CC=C4C[C@@H](O)CC[C@]4(C)[C@H]3CC[C@]12C", "note": "[27HC, 27-hydroxycholesterol]", "values": [{"measurement": "number of oligodendrocytes (nucleated CNPase+ cells per high power field)", "setting": "[1]", "result": "did not increase"}]}
{"smiles": "C[C@H](CCCC(C)(C)O)[C@H]1CC[C@H]2[C@@H]3CC=C4C[C@@H](O)CC[C@]4(C)[C@H]3CC[C@]12C", "note": "[25HC, 25-hydroxycholesterol]", "values": [{"measurement": "cells polarized into the TH17 population", "setting": "naïve CD4+ T cells; higher doses", "result": 2.7, "unit": "%"}, {"measurement": "cells polarized into the TH17 population", "setting": "naïve CD4+ T cells; low doses", "result": 23.6, "unit": "%"}, {"measurement": "TH17 polarization (in words, FIG. 8)", "setting": "naïve CD4+ T cells; low doses", "result": "promote"}, {"measurement": "expression of oligodendrocyte-associated proteins CNPase and MBP", "setting": "[2]", "result": "induced expression"}, {"measurement": "number of oligodendrocytes (nucleated CNPase+ cells per high power field)", "setting": "[1]", "result": "increased number"}, {"measurement": "myelin integrity (fluoromyelin staining)", "setting": "[3]; 100 mg/kg/day for five days, compared to septic injured mice that received vehicle control", "result": "improved myelin integrity"}, {"measurement": "diffuse white matter injury", "setting": "[3]; septic injured neonatal mice", "result": "reversed"}, {"measurement": "numbers of mature oligodendrocytes (CC1+Olig2+)", "setting": "[3]; stereology, compared to septic injured mice, p<0.0001", "result": "significantly higher"}]}
{"smiles": "CC(C)CCC(O)[C@@H](C)[C@H]1CC[C@H]2[C@@H]3CC=C4C[C@@H](O)CC[C@]4(C)[C@H]3CC[C@]12C", "note": "(stereo partly drawn) [22HC, 22-hydroxycholesterol]", "values": [{"measurement": "number of oligodendrocytes (nucleated CNPase+ cells per high power field)", "setting": "[1]", "result": "increased number"}]}
{"smiles": "CC(C)C(O)CC[C@@H](C)[C@H]1CC[C@H]2[C@@H]3CC=C4C[C@@H](O)CC[C@]4(C)[C@H]3CC[C@]12C", "note": "(stereo partly drawn) [24HC, 24-hydroxycholesterol]", "values": [{"measurement": "cells polarized into the TH17 population", "setting": "naïve CD4+ T cells; 5 days culture", "result": 2.1, "unit": "%"}, {"measurement": "TH17 polarization (in words, FIG. 8)", "setting": "naïve CD4+ T cells", "result": "decrease"}, {"measurement": "expression of oligodendrocyte-associated proteins CNPase and MBP", "setting": "[2]", "result": "induced expression"}, {"measurement": "number of oligodendrocytes (nucleated CNPase+ cells per high power field)", "setting": "[1]", "result": "increased number"}]}
{"smiles": "CC(C)CC[C@@H](O)[C@@H](C)[C@H]1CC[C@H]2[C@@H]3CC=C4C[C@@H](O)CC[C@]4(C)[C@H]3CC[C@]12C", "note": "[22α-hydroxycholesterol]", "values": [{"measurement": "activation of the SHH pathway via direct binding to smoothened (SMO)", "setting": "smoothened (SMO)", "result": "activate"}]}
{"smiles": "O=C(O)Cc1cccc(OCCCN(Cc2cccc(C(F)(F)F)c2Cl)CC(c2ccccc2)c2ccccc2)c1", "note": "[GW3965, reference compound]", "values": [{"measurement": "cells polarized into the TH17 population", "setting": "naïve CD4+ T cells; 5 days culture", "result": 2.6, "unit": "%"}]}
{"smiles": "CC(C)CCC[C@](C)(O)[C@H]1CC[C@H]2[C@@H]3CC=C4C[C@@H](O)CC[C@]4(C)[C@H]3CC[C@@]21C", "note": "[20HC, 20α-Hydroxycholesterol]", "values": [{"measurement": "activation of the SHH pathway via direct binding to smoothened (SMO)", "setting": "smoothened (SMO)", "result": "activate"}, {"measurement": "cells polarized into the TH17 population", "setting": "naïve CD4+ T cells; 5 days culture", "result": 2.2, "unit": "%"}, {"measurement": "TH17 polarization (in words, FIG. 8)", "setting": "naïve CD4+ T cells", "result": "decrease"}, {"measurement": "number of oligodendrocytes (nucleated CNPase+ cells per high power field)", "setting": "[1]", "result": "increased number"}, {"measurement": "development of MS-like symptoms", "setting": "[4]; 50 mg/kg/day subcutaneous, from two days prior to EAE induction through day 14", "result": "disrupted"}, {"measurement": "EAE clinical score", "setting": "[4]; compared to control mice over 46 days, p≤0.05", "result": "attenuation"}, {"measurement": "I-κB degradation", "setting": "NF-κB", "result": "blocked; also recorded: prevented"}, {"measurement": "phosphorylation of p65", "setting": "NF-κB", "result": "blocked; also recorded: prevented"}]}
